According to patent US20050271606A1, “Composition for treating inflammation which contains zinc pyrrolidonecarboxylate” (priority 2004, published 2005):

Assays:
Type in all cases: cell-based
AP-1 = experiment: Action on AP-1 activation by ultraviolet ray (UVA) in human dermal fibroblasts, activated AP-1 in nucleoprotein (gel shift or ELISA assay); conditions: 50 μM, 18 h incubation, UVA 20 J/cm^2
Protocol: (§1) The fibroblasts were irradiated with ultraviolet rays (UVA: 20 J/cm^2) using Dermaray M-DMR-80 (manufactured by Toshiba Iryoyohin). After 4 to 5 hours, the fibroblasts were recovered and the nucleoprotein was extracted therefrom by a conventional method. The resulting nucleoprotein was subjected to a gel shift assay or an ELISA assay (TransAM Kit, ACTIVE MOTIF) to detect activated AP-1. When applying the gel shift assay, the radioactive value of the AP-1 band was measured using a bio-imaging analyzer BAS 2000 (manufactured by Fuji Photo Film).
The suppression rate of the test compound for AP-1 activation was calculated from the following formula. Suppression Rate for AP-1 Activation (%)={1−(A1−A3)/(A2−A3)}×100 A1: radioactive value of AP-1 band when a test compound was added A2: radioactive value of AP-1 band when no test compound was added A3: radioactive value of AP-1 band when no test compound was added and no irradiation with ultraviolet rays

AP-1 (c-Jun) = experiment: AP-1 activation by ultraviolet ray in human dermal fibroblasts, ELISA assay (TransAM Kit), quantity of c-Jun; conditions: 18 h incubation, UVA 20 J/cm^2, ELISA
Protocol: as §1
(§2) An ELISA assay was performed in accordance with the manual of the kit used, and the activation of AP-1 was obtained by determination of the quantity of c-Jun or c-Fos.
(§3) The suppression rate of AP-1 (c-Jun or c-Fos) activation of a test compound was calculated from the following formula. Suppression Rate for AP-1 Activation (%)={1−{B1−B3)/(B2−B3)}×100 B1: 450 nm absorbance when a test compound was added (per nucleoprotein) B2: 450 nm absorbance when no test compound was added (per nucleoprotein) B3: 450 nm absorbance when no test compound was added and no ultraviolet ray was irradiated (per nucleoprotein)

AP-1 (c-Fos) = experiment: AP-1 activation by ultraviolet ray in human dermal fibroblasts, ELISA assay (TransAM Kit), quantity of c-Fos; conditions: 18 h incubation, UVA 20 J/cm^2, ELISA
Protocol: as §1, §2, §3

For `O=C1CCC(C(=O)[O-])N1.O=C1CCC(C(=O)[O-])N1.[Zn+2]` (racemic) [Zinc DL-Pyrrolidonecarboxylate], the “Suppressing Rate (%) for AP-1 activation” value (AP-1) was 38.8%.
For Zinc Laurate, the “Suppressing Rate (%) for AP-1 activation” value (AP-1) was 9.1%.
For `O=C1CC[C@@H](C(=O)[O-])N1.O=C1CC[C@@H](C(=O)[O-])N1.[Zn+2]` [Zinc L-Pyrrolidonecarboxylate], the “Suppressing Rate (%) (c-Jun)” value (AP-1 (c-Jun); 10 μM) was 109.5%, the “Suppressing Rate (%) (c-Jun)” value (AP-1 (c-Jun); 100 μM) was 106.7% and the “Suppressing Rate (%) (c-FOS)” value (AP-1 (c-Fos); 10 μM) was 69.3%. For the same molecule, the “Suppressing Rate (%) (c-FOS)” value (AP-1 (c-Fos); 100 μM) was 77.0%.
With `NCC(=O)[O-].NCC(=O)[O-].[Zn+2]` [Zinc Salt of Glycine] the “Suppressing Rate (%) for AP-1 activation” value (AP-1) was −72.8%.
